Results as given in patent US9017963B2, “Method for detecting microorganisms” (Woundchek Laboratories (US), Inc., priority 2002, dated 2015).
Primed or numbered codes have the meaning given here. No end group written: not given here. *: point of attachment. Dabcyl″ = label, CN(C)c1ccc(/N=N/c2ccc(C(=O)*)cc2)cc1; EDANS = O=S(=O)(O)c1cccc2c(NCCN*)cccc12; Dabcyl′ = not defined here; pyrene = label

What was measured:
[1] = test system: surface of Staphylococcus; assay: Binding of fluorescent peptide to the surface of Staphylococcus; settings: predicted
Text: Substrates for use in the present invention include any molecule, either synthetic or naturally-occurring that can interact with an enzyme of the present invention. Examples of substrates include those substrates described herein, as well as substrates for these enzymes that are known in the art. […] Such substrates described herein can be obtained from commercial sources, e.g., Sigma (St. Louis, Mo.), or can be produced, e.g., isolated or purified, or synthesized using methods known to those of skill in the art.

[2] = test system: Pseudomonas aeruginosa protease; assay: Protease assay for P. aeruginosa (strains P1, PA14, ZK45 supernatants); assay type: biochemical; settings: 20 mM tris (pH 7.5), 150 mM NaCl, 37° C.
Text: The peptide substrates used here were labeled with the fluorescent probe edans (5-((2-aminoethyl)amino)naphthalene-1-sulfonic acid) and the quencher dye molecule dabcyl ((4-(4-(dimethylamino)phenyl)azo)benzoic acid). The labeled peptide sequences used were as follows: […]

P. aeruginosa protease = assay: Protease assay on porcine wound fluid; assay type: biochemical, Pseudomonas aeruginosa; settings: porcine wounds infected with 10^3, 10^4 or 10^5 bacteria, 3 days; 1 hour reaction; FIG. 18
Method: In order to test for the presence of enzymatic activity in a wound bacterial protease assay for detection of P. aeruginosa was performed on samples obtained from wound infections made in pigs. […] Each of the resulting cultures was diluted into sodium phosphate buffer at pH 7.2 with 150 mM NaCl (PBS buffer) to give samples containing 10^5, 10^4, and 10^3 bacteria total in 100 μL. Immediately after surgery to create a series of partial thickness wounds was performed on the pigs, the wound surfaces were treated with calcium chloride solution for a short period and then patted dry. A buffer solution containing diluted bacterial cultures was placed on the surface of the wounds. The wounds were then covered and the infections were allowed to grow for a period of 3 days. After the dressing was removed from the pigs and the wounds were scored for degree of inflammation, 100 μL of PBS buffer was added to the wound surface and the extracted wound fluid was recovered by pipet. Each of the samples was split in half and 50 μL were used to inoculate BHI plates and the other 50 μL were placed in plastic tubes and immediately frozen at −80° C.
The buffer used to dilute the wound fluid in the protease assays was PBS. […] The reaction was followed on a fluorimetric plate reader using an excitation wavelength of 355 nm and an emission wavelength of 528 nm.

Pseudomonas protease = assay: Protease assay with modified version of papa1, bacterial supernatants; assay type: biochemical, Pseudomonas aeruginosa; settings: supernatants of eight bacteria; excitation 355 nm, emission 485 nm; FIG. 17A
Method: The protease assay described herein for detection of P. aeruginosa was run with the modified version of papa1. […] Each of the resulting cultures was spun down by centrifugation and the supernatant was collected. The assays were run in 20 mM tris buffer (pH 7.4) with 150 mM NaCl added. The reaction was carried out with 7 μL of supernatant and 3 μL of peptide substrate (5 mg/mL in water) in 100 μL total volume at 37° C. The reaction was followed on a fluorimetric plate reader using an excitation wavelength of 355 nm and an emission wavelength of 485 nm.

Pseudomonas = assay: Peptide on positively charged membrane exposed to Pseudomonas culture medium; assay type: biochemical; settings: FIG. 17C
Text: Electrostatic interactions make use of the charges on the peptide or chromophore to bind it to a surface to make a biosensor. For example, ion exchange membranes with a strong negative (ICE450) or positive (SB-6407) charge are available from Pall Gelman Laboratory, Ann Arbor, Mich. It is possible to bind the peptide substrates through interactions with their charged groups. The peptide substrate papa2, as described herein, was spotted onto a positively charged membrane and exposed to Pseudomonas culture medium.

[3] = test system: DNA metabolism enzymes (exonuclease and endonuclease) in bacterial supernatants; assay: Fluorescent DNA probe assay for DNA metabolism activity; assay type: biochemical; settings: supernatants of eight bacteria; excitation 485 nm, emission 538 nm; 37° C.
Method: Another method for detecting DNA metabolism activity is to generate synthetic colorimetric and fluorescent DNA probes that can indicate DNA hydrolysis (exonuclease and endonuclease activity). The method was carried out as follows. Two complementary oligonucleotides were generated. One oligonucleotide was labeled with self-quenching fluorescent labels, while the other primer remained unlabeled. The sequences of the oligonucleotides were as follows: Unlabeled Sequence 5′-[…]-3 (SEQ ID NO: 6); and Labeled Sequence FL-5′-[…]-3′-FL (SEQ ID NO: 7). […] The culture was spun down by centrifugation and the supernatant was collected. The fluorescent labeled primer and its unlabeled complement were dissolved in water at a concentration of approximately 1 mg/mL. The primers were heated to melting temperature for 2 minutes at 92° C., then allowed to anneal for 5 minutes at 43° C. After annealing, the DNA substrate was added to the reaction buffer (20 mM tris (pH 7.4) with 150 mM NaCl) and incubated at 37° C. for 10 minutes. The reaction was carried out with 7 μL of culture supernatant and 3 μL of DNA substrate in 100 μL total volume at 37° C. The reaction was followed using a fluorimetric plate reader using an excitation wavelength of 485 nm and an emission wavelength of 538 nm. […]

[4] = test system: lipases secreted by bacteria (Staphylococcus epidermidis); assay: Lipase assay, S. epidermidis culture supernatant; assay type: biochemical; settings: 20 mM Tris (pH 8.5), 37° C., 60 minutes
Method: (§1) A culture of each of the following bacterial species was grown to saturation in Brain Heart Infusion (BHI) broth at 37° C. with vigorous shaking (˜200 rpm), using methods that are standard in the art: Staphylococcus aureus; Staphylococcus epidermidis; Serratia marcescens; Streptococcus salivarius; Escherichia coli; Pseudomonas aeruginosa; and Enterococcus faecalis. After overnight growth (to saturation), a 1 mL sample of each culture was obtained, and the cells were removed from the culture supernatant by centrifugation at 12,000×g for 5 minutes. The remaining culture supernatants were stored on ice until required (less than one hour). The bacteria were assayed for the presence or absence of specific enzymes as described below. Alternatively, the bacterial cells are not separated from the culture supernatant, but rather, the assay is carried out on a sample containing the cells still in suspension in their culture broth. […]
(§2) To perform the lipase assay, 80 μL of reaction buffer, 10 μL of culture supernatant from each bacteria species described in Example 2, and 10 μL of assay substrate were added to a well of a 96-well microplate. […] At 5 minute intervals during the incubation period, absorbance at 415 nm, indicating modification of the enzyme by a lipase secreted by the cells, was automatically measured using a BioRad Benchmark Microplate reader.

lipase from S. aureus = assay: Lipase assay, S. aureus culture supernatant; assay type: biochemical, Staphylococcus aureus; settings: 20 mM Tris (pH 8.5), 37° C., 60 minutes
Method: A culture of each of the following bacterial species was grown to saturation in Brain Heart Infusion (BHI) broth at 37° C. with vigorous shaking (˜200 rpm), using methods that are standard in the art: Staphylococcus aureus; Staphylococcus epidermidis; Serratia marcescens; Streptococcus salivarius; Escherichia coli; Pseudomonas aeruginosa; and Enterococcus faecalis. After overnight growth (to saturation), a 1 mL sample of each culture was obtained, and the cells were removed from the culture supernatant by centrifugation at 12,000×g for 5 minutes. The remaining culture supernatants were stored on ice until required (less than one hour). The bacteria were assayed for the presence or absence of specific enzymes as described below. Alternatively, the bacterial cells are not separated from the culture supernatant, but rather, the assay is carried out on a sample containing the cells still in suspension in their culture broth.
To test for the presence or absence of lipases secreted by bacteria, the lipase substrate p-nitrophenyl caprate, obtained from Sigma (Catalog No.: N-0252). This lipase substrate consists of capric acid, a ten-carbon lipid molecule, esterified with the dye para nitrophenol (detectable label) as described above. The substrate was dissolved in isopropyl alcohol at a concentration of 8 mM (2.35 mg/mL). A reaction buffer containing 20 mM Tris (pH 8.5) was also prepared.
To perform the lipase assay, 80 μL of reaction buffer, 10 μL of culture supernatant from each bacteria species described in Example 2, and 10 μL of assay substrate were added to a well of a 96-well microplate. Each bacterial species was assayed individually, and the assays were performed in triplicate. The 96-well plate was incubated at 37° C. for 60 minutes. At 5 minute intervals during the incubation period, absorbance at 415 nm, indicating modification of the enzyme by a lipase secreted by the cells, was automatically measured using a BioRad Benchmark Microplate reader.
However, it is known that bacterial lipases do show strong substrate specificity with regard to the chain length of the fatty acid they hydrolyze (Van Kampen et al., BBA, 1544: 229, 2001) and to the location in a lipid layer. The degree that the environment of the substrate affects the efficiency of hydrolysis depends on the particular enzyme. To test this for the lipase from S. aureus, the above-described lipase assay was performed in the presence of several detergent and solvent additives. The reaction buffer consisted of 20 mM Tris (pH 8.3) with 1 mM ZnSO4 added, plus either nothing additional (control), 20% methanol, 20% DMSO, or 10 mM Triton X-100.

[5] = test system: Serratia marcescens, Streptococcus salivarius, Escherichia coli, Pseudomonas aeruginosa, Enterococcus faecalis supernatants; assay: Lipase assay, other bacterial supernatants; assay type: biochemical; settings: other bacterial samples; 20 mM Tris (pH 8.5); 37° C., 60 minutes
Method: as §1, §2

[6] = test system: Staphylococcus epidermidis; assay: Glass microfiber filter biosensor, S. epidermidis culture; assay type: biochemical; settings: Quadrant #2, S. epidermidis; 37° C., 30 minutes
Method: (§3) An example of a biosensor for the detection of an enzyme secreted by Staphylococcus epidermidis (S. epidermidis), and therefore, for the detection of Staphylococcus epidermidis now follows. A […] solution of 20 mM p-nitrophenyl Caprate (in ispropanol) was applied to a 2.5 cm glass microfiber filter (Whatman GF/A). The isopropanol was allowed to evaporate at room temperature for 30 minutes, leaving the substrate bound to the filter. After the filter was completely dry, a single drop of bacterial culture was applied to each quadrant of the filter. In Quadrant #1, Staphylococcus aureus was applied; in Quadrant #2, Staphylococcus epidermidis was applied; in Quadrant #3 Streptococcus salivarius was applied, and in Quadrant #4, media was applied as a control. The filter was incubated at 37° C. for 30 minutes, and detection of a yellow dye, indicating modification of the substrate by an enzyme in the bacteria was detected.

Staphylococcus aureus = assay: Glass microfiber filter biosensor, S. aureus culture; assay type: biochemical; settings: Quadrant #1, S. aureus; 37° C., 30 minutes
Method: as §3

Streptococcus salivarius = assay: Glass microfiber filter biosensor, S. salivarius culture; assay type: biochemical; settings: Quadrant #3, S. salivarius; 37° C., 30 minutes
Method: as §3

Question: How did the “change in fluorescence upon binding” value [1] turn out when “PGTKLYTVPW-pyrene [Alt derived fluorescent peptide]” was run?
Answer: Its value is “increase in fluorescence upon binding”.

Question: “Edans - KAAHKSALKSAE - Dabcyl (Edans-KAAHKSALKSAE-{Dabcyl′}) [papa1, labeled peptide substrate of Pseudomonas aeruginosa, origin PepA]” was tested. Which “enzymatic cleavage of peptide substrate (relative fluorescent intensity)” value [2] did it give?
Answer: The value was “cleaved”.

Question: What about the “detection of P. aeruginosa in extracted wound fluid (relative fluorescence)” value (P. aeruginosa protease) of the same compound?
Answer: The value was “samples containing P. aeruginosa were detectable”.

Question: With “KKAS(E-edans)AAHKSALKSAE(K-dabcyl) (KKASE(EDANS)AAHKSALKSAEK(Dabcyl″)) [papa2, papa1 version with two lysine groups as tag for surface attachment]” as the compound, how does the “cleavage of protease substrate (relative fluorescence), comparison of species” value (Pseudomonas protease) read?
Answer: The value was “greatest fluorescence in the sample containing Pseudomonas”.

Question: What about the “fluorescence upon cleavage on membrane” value (Pseudomonas) of the same compound?
Answer: Its value is “upon cleavage of the peptide yellow fluorescence”.

Question: Which “DNA metabolic activity (relative fluorescence of labeled probe)” value [3] does the source give for “FL-5′-AGGAATTCAGTGGATCCTCGAGAGG-3′-FL (antisense CCTCTCGAGGATCCACTGAATTCCT; sense: DNA, backbone not given here; antisense: DNA, backbone and methylation of C not given here; further chemistry not fully specified) [labeled DNA probe]” here?
Answer: The value was “detected specific DNA metabolic activity associated with Enterococcus”.

Question: `CCCCCCCCCC(=O)Oc1ccc([N+](=O)[O-])cc1` [p-nitrophenyl caprate] was tested. Which “color change (absorbance at 415 nm)” value [4] did it give?
Answer: The value was “showed a dramatic color change”.

Question: What about the “color change (absorbance at 415 nm)” value (lipase from S. aureus) of the same compound?
Answer: Its value is “showed a dramatic color change”.

Question: And the “color change (absorbance at 415 nm)” value [5]?
Answer: Its value is “showed no color change”.

Question: And the “modification of labeled substrate on filter (yellow dye)” value (from here on “modification of labeled substrate”) [6]?
Answer: The value was “Modification of the labeled substrate was detected”.

Question: What about the “modification of labeled substrate” value (Staphylococcus aureus) of the same compound?
Answer: Its value is “no modification of the labeled substrate was detected”.

Question: And the “modification of labeled substrate” value (Streptococcus salivarius)?
Answer: The value was “no modification of the labeled substrate was detected”.
